# Test results from patent publication US20070149446A1, “Tamandarin analogs and fragments thereof and methods of making and using” (The Trustees of the University of Pennsylvania Center for …, priority 2003, published 2007).
# Starred links: 1 amine or outer side, 2 acyl side, 3 side chain; linkers in the order of their positions; H or OH if unused. Positions of bridges follow the written chain, without caps; N, C: chain ends. Non-standard residues stand in square brackets, D forms with d. Residues, ends and D or L forms follow the SMILES beside them. Hexanoyl(3S-OH,4R-NH2,5-Me) = CC(C)[C@@H](N[*:1])[C@@H](O)CC(=O)[*:2]; NMeY = CN[C@@H](Cc1ccc(O)cc1)C(=O)O; dNMeL = CN[C@H](CC(C)C)C(=O)O; Hiv = CC(C)[C@H](O)C(=O)O; Lac = C[C@H](O)C(=O)O
# What was measured:
# A549 = assay: SRB colorimetric cell growth inhibition assay, A549
# Description: (§1) This form of assay employs 96 well cell culture microplates of […] diameter (Faircloth, 1988; Mosmann, 1983). Most of the cell lines are obtained from American Type Culture Collection (ATCC) derived from different human cancer types.
# (§2) Cells are maintained in RPMI 1640 10% FBS, supplemented with 0.1 g/l penicillin and 0.1 g/l streptomycin sulfate and then incubated at 37° C., 5% CO2 and 98% humidity. For the experiments, cells were harvested from subconfluent cultures using trypsin and resuspended in fresh medium before plating.
# (§3) Cells are seeded in 96 well microtiter plates, at 5×10^3 cells per well in aliquots of 195 μl medium, and they are allowed to attach to the plate surface by growing in drug free medium for 18 hours. Afterward, samples are added in aliquots of 5 μl in a ranging from 10 to 10-8 μg/ml, dissolved in DMSO/EtOH/PBS (0.5:0.5:99). After 48 hours exposure, the antitumor effect are measured by the SRB methodology: cells are fixed by adding 50 μl of cold 50% (wt/vol) trichloroacetic acid (TCA) and incubated for 60 minutes at 4° C.
# (§4) Plates are washed with deionised water and dried. One hundred μl of SRB solution (0.4% wt/vol in 1% acetic acid) is added to each microtiter well and incubated for 10 minutes at room temperature. Unbound SRB is removed by washing with 1% acetic acid. Plates are air dried and bound stain is solubilized with Tris buffer. Optical densities are read on a automated spectrophotometric plate reader at a single wavelength of 490 nm.
# (§5) The values for mean+/−SD of data from triplicate wells are calculated.
# (§6) Some parameters for cellular responses can be calculated: GI=growth inhibition, TGI=total growth inhibition (cytostatic effect) and LC=cell killing (cytotoxic effect).
# HELA-APL = assay: SRB colorimetric cell growth inhibition assay, HELA-APL
# Description: as §1, §2, §3, §4, §5, §6
# IGROV-ET = assay: SRB colorimetric cell growth inhibition assay, IGROV-ET
# Description: as §1, §2, §3, §4, §5, §6
# LOVO = assay: SRB colorimetric cell growth inhibition assay, LOVO
# Description: as §1, §2, §3, §4, §5, §6
# PANC1 = assay: SRB colorimetric cell growth inhibition assay, PANC1
# Description: as §1, §2, §3, §4, §5, §6
# HT29 = assay: SRB colorimetric cell growth inhibition assay, HT29
# Description: as §1, §2, §3, §4, §5, §6
# SK-MEL-28 = assay: SRB colorimetric cell growth inhibition assay, SK-MEL-28
# Description: as §1, §2, §3, §4, §5, §6
# IGROV = assay: SRB colorimetric cell growth inhibition assay, IGROV
# Description: as §1, §2, §3, §4, §5, §6
# HELA = assay: SRB colorimetric cell growth inhibition assay, HELA
# Description: as §1, §2, §3, §4, §5, §6
# K562 = assay: SRB colorimetric cell growth inhibition assay, K562
# Description: as §1, §2, §3, §4, §5, §6
# SK-BR3 = assay: SRB colorimetric cell growth inhibition assay, SK-BR3
# Description: as §1, §2, §3, §4, §5, §6
# LOVO-DOX = assay: SRB colorimetric cell growth inhibition assay, LOVO-DOX
# Description: as §1, §2, §3, §4, §5, §6
# LN-caP = assay: SRB colorimetric cell growth inhibition assay, LN-caP
# Description: as §1, §2, §3, §4, §5, §6
# DU145 = assay: SRB colorimetric cell growth inhibition assay, DU145
# Description: as §1, §2, §3, §4, §5, §6
# [1] = Homo sapiens, 48 h, read-out: LC50
smiles,measurement,setting,value
"COc1ccc(C[C@H]2C(=O)O[C@H](C)[C@H](NC(=O)[C@@H](CC(C)C)N(C)C(=O)[C@@H]3CCCN3C(=O)[C@H](C)O)C(=O)N[C@H](C(C)C)[C@@H](O)CC(=O)O[C@@H](C(C)C)C(=O)N[C@@H](CC(C)C)C(=O)N[C@@H](C)C(=O)N2C)cc1 [Compound 75, [N-Ala^4]-Tamandarin B] (H-[Lac]P[dNMeL]T[Hexanoyl(3S-OH,4R-NH2,5-Me)][Hiv]LA[NMeY](Me); ester 4-C)",TGI,"A549; A549 cells, total growth inhibition, SRB, 48 hours exposure",9.84E−06 Molar
same,GI50,"A549; Homo sapiens, A549, 48 h",5.85 µM
same,CC50,"A549; Homo sapiens, A549, 48 h, read-out: LC50",≥ 9.84 µM
same,TGI,"HELA-APL; HELA-APL cells, total growth inhibition, SRB, 48 hours exposure",9.84E−06 Molar
same,GI50,"HELA-APL; Homo sapiens, 48 h",≥ 9.84 µM
same,CC50,HELA-APL; [1],≥ 9.84 µM
same,GI50,"IGROV-ET; Homo sapiens, 48 h",6.86 µM
same,CC50,IGROV-ET; [1],≥ 9.84 µM
same,TGI,"IGROV-ET; IGROV-ET cells, total growth inhibition, SRB, 48 hours exposure",9.84E−06 Molar
same,GI50,"LOVO; Homo sapiens, LoVo, 48 h",3.55 µM
same,CC50,"LOVO; Homo sapiens, LoVo, 48 h, read-out: LC50",≥ 9.84 µM
same,TGI,"LOVO; LOVO cells, total growth inhibition, SRB, 48 hours exposure",9.84E−06 Molar
same,GI50,"PANC1; Homo sapiens, PANC-1, 48 h",3.75 µM
same,CC50,"PANC1; Homo sapiens, PANC-1, 48 h, read-out: LC50",≥ 9.84 µM
same,TGI,"PANC1; PANC1 cells, total growth inhibition, SRB, 48 hours exposure",9.84E−06 Molar
same,TGI,"HT29; HT29 cells, total growth inhibition, SRB, 48 hours exposure",9.84E−06 Molar
same,GI50,"HT29; Homo sapiens, HT-29, 48 h",4.22 µM
same,CC50,"HT29; Homo sapiens, HT-29, 48 h, read-out: LC50",≥ 9.84 µM
same,GI50,"SK-MEL-28; Homo sapiens, SK-MEL-28, 48 h",1.5 µM
same,CC50,"SK-MEL-28; Homo sapiens, SK-MEL-28, 48 h, read-out: LC50",8 µM
same,TGI,"SK-MEL-28; SK-MEL-28 cells, total growth inhibition, SRB, 48 hours exposure",3.46E−06 Molar
same,GI50,"IGROV; Homo sapiens, IGROV, 48 h",1.99 µM
same,CC50,"IGROV; Homo sapiens, IGROV, 48 h, read-out: LC50",≥ 9.84 µM
same,TGI,"IGROV; IGROV cells, total growth inhibition, SRB, 48 hours exposure",5.29E−06 Molar
same,TGI,"HELA; HELA cells, total growth inhibition, SRB, 48 hours exposure",3.60E−06 Molar
same,GI50,"HELA; Homo sapiens, HeLa, 48 h",1.18 µM
same,CC50,"HELA; Homo sapiens, HeLa, 48 h, read-out: LC50",≥ 9.84 µM
same,GI50,"K562; Homo sapiens, K562, 48 h",5.87 µM
same,CC50,"K562; Homo sapiens, K562, 48 h, read-out: LC50",≥ 9.84 µM
same,TGI,"K562; K562 cells, total growth inhibition, SRB, 48 hours exposure",9.46E−06 Molar
same,GI50,"SK-BR3; Homo sapiens, SK-BR-3, 48 h",0.789 µM
same,CC50,"SK-BR3; Homo sapiens, SK-BR-3, 48 h, read-out: LC50",≥ 9.84 µM
same,TGI,"SK-BR3; SK-BR3 cells, total growth inhibition, SRB, 48 hours exposure",3.39E−06 Molar
same,GI50,"LOVO-DOX; Homo sapiens, 48 h",≥ 9.84 µM
same,CC50,LOVO-DOX; [1],≥ 9.84 µM
same,TGI,"LOVO-DOX; LOVO-DOX cells, total growth inhibition, SRB, 48 hours exposure",9.84E−06 Molar
same,GI50,"LN-caP; Homo sapiens, LNCaP, 48 h",0.548 µM
same,CC50,"LN-caP; Homo sapiens, LNCaP, 48 h, read-out: LC50",≥ 9.84 µM
same,TGI,"LN-caP; LN-caP cells, total growth inhibition, SRB, 48 hours exposure",2.97E−06 Molar
same,TGI,"DU145; DU145 cells, total growth inhibition, SRB, 48 hours exposure",4.95E−06 Molar
same,GI50,"DU145; Homo sapiens, DU-145, 48 h",1.81 µM
same,CC50,"DU145; Homo sapiens, DU-145, 48 h, read-out: LC50",≥ 9.84 µM
